Measurements: US20240140986A1, “SYNTHETIC URSOLIC ACID DERIVATIVES AND METHODS OF USE THEREOF” (REATA PHARMACEUTICALS, INC., priority 2021, published 2024)
Like-named read-outs stand apart in the source and are kept apart here.

Key:
[1] = tested on: IFNγ-induced NO production in RAW 264.7 cells; test: Nitric Oxide Suppression Assay (IFNγ-induced NO, Griess nitrite readout); type: cell-based, mouse; conditions: for IC50: Mus musculus, read-out: Avg NO IC50 (nM) (Mean ± SD); for Avg NO IC50 Relative to RTA402 (fold): Table 2, ratio to RTA402
Summary of the method: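 RAW 264.7 mouse macrophages in RPMI 1640 with 0.5% FBS were pretreated 2 h with compound (0.1% DMSO final), then stimulated with 20 ng/mL IFNγ for 24 h at 37° C. Supernatant nitrite was read by Griess absorbance at 525 nm against a nitrite standard curve, normalized to DMSO-IFNγ wells; IC50 from curve fit. Viability by WST-1.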

[2] = tested on: Nrf2 / ARE-dependent luciferase in AREc32 reporter cell line; test: AREc32 luciferase reporter activation (Nrf2 induction); type: cell-based, human; conditions: for EC (2-fold): Homo sapiens, Arec32; for Relative Avg AREc32 EC2X Relative to RTA402 (fold): ratio to RTA402
Summary of the method: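 EC2X is the concentration raising luminescence 2-fold above DMSO-treated cells, from a nonlinear-regression dose–response fit. Compounds (0.03–1000 nM) were applied for nineteen hours, starting one day after seeding 20,000 reporter cells per well. Luciferase was read with One-Glo reagent.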

[3] = RAW264.7, Table 2, RAW 264.7 cells, 2 h pretreatment, 20 ng/mL interferon gamma 24 h
[4] = Table 2, concentration increasing luminescence 2-fold above vehicle, 19 h treatment, read-out: Avg AREc32 EC2X (nM) (Mean ± SD)

Row | Compound | IC50 [1, 3] | Avg NO IC50 Relative to RTA402 (fold) [1] | EC (2-fold) [2, 4] | Relative Avg AREc32 EC2X Relative to RTA402 (fold) ([2]; Table 2) | IC50 ([1]; RAW264.7, Table 3, ursolic acid derivatives) | EC (2-fold) ([2]; Table 3, ursolic acid derivatives, read-out: Avg ARE EC-2X (nM) (Mean ± SD))
1 | C[C@@H]1[C@H]2[C@H]3C(=O)C=C4[C@@]5(C)C=C(C#N)C(=O)C(C)(C)[C@@H]5CC[C@@]4(C)[C@]3(C)CC[C@@]2(CN2C(=O)CCC2=O)CC[C@H]1C [Compound T75] | 3.23 ± 0.65 nM | 1.46 ± 0.46 fold | 2.47 ± 0.64 nM | 0.242 ± 0.070 fold | – | –
2 | COC(=O)CC[C@]12CC[C@@H](C)[C@H](C)[C@H]1[C@H]1C(=O)C=C3[C@@]4(C)C=C(C#N)C(=O)C(C)(C)[C@@H]4CC[C@@]3(C)[C@]1(C)CC2 [Compound T76] | 14.8 ± 2.8 nM | 9.13 ± 1.38 fold | 8.7 ± 0.63 nM | 1.1 ± 0.3 fold | – | –
3 | C[C@@H]1[C@H]2[C@H]3C(=O)C=C4[C@@]5(C)C=C(C#N)C(=O)C(C)(C)[C@@H]5CC[C@@]4(C)[C@]3(C)CC[C@@]2(CCC(=O)O)CC[C@H]1C [Compound T77] | 8.75 ± 4.81 nM | 2.31 ± 0.20 fold | 3.16 ± 1.11 nM | 0.263 ± 0.085 fold | – | –
4 | CNC(=O)CC[C@]12CC[C@@H](C)[C@H](C)[C@H]1[C@H]1C(=O)C=C3[C@@]4(C)C=C(C#N)C(=O)C(C)(C)[C@@H]4CC[C@@]3(C)[C@]1(C)CC2 [Compound T78] | 2.43 ± 0.95 nM | 0.683 ± 0.093 fold | 2.33 ± 0.78 nM | 0.194 ± 0.058 fold | – | –
5 | CCNC(=O)CC[C@]12CC[C@@H](C)[C@H](C)[C@H]1[C@H]1C(=O)C=C3[C@@]4(C)C=C(C#N)C(=O)C(C)(C)[C@@H]4CC[C@@]3(C)[C@]1(C)CC2 [Compound T79] | 4.5 ± 1.84 nM | 1.25 ± 0.13 fold | 4.32 ± 0.5 nM | 0.361 ± 0.028 fold | – | –
6 | C[C@@H]1[C@H]2[C@H]3C(=O)C=C4[C@@]5(C)C=C(C#N)C(=O)C(C)(C)[C@@H]5CC[C@@]4(C)[C@]3(C)CC[C@@]2(CCC(=O)N2CCC2)CC[C@H]1C [Compound T80] | 2.76 ± 1.02 nM | 1.09 ± 0.03 fold | 3.72 ± 0.14 nM | 0.311 ± 0.023 fold | – | –
7 | C[C@@H]1[C@H]2[C@H]3C(=O)C=C4[C@@]5(C)C=C(C#N)C(=O)C(C)(C)[C@@H]5CC[C@@]4(C)[C@]3(C)CC[C@@]2(CCC(=O)NC2CC2)CC[C@H]1C [Compound T81] | 2.31 ± 0.55 nM | 0.92 ± 0.27 fold | 3.1 ± 1.5 nM | 0.238 ± 0.072 fold | – | –
8 | Cc1nc([C@]23CC[C@@H](C)[C@H](C)[C@H]2[C@H]2C(=O)C=C4[C@@]5(C)C=C(C#N)C(=O)C(C)(C)[C@@H]5CC[C@@]4(C)[C@]2(C)CC3)no1 [Compound T82] | 5.58 ± 0.32 nM | 3.69 ± 0.82 fold | 10 ± 3 nM | 1.01 ± 0.11 fold | 5.58 ± 0.32 nM | 10 ± 3 nM
9 | C[C@@H]1[C@H]2[C@H]3C(=O)C=C4[C@@]5(C)C=C(C#N)C(=O)C(C)(C)[C@@H]5CC[C@@]4(C)[C@]3(C)CC[C@@]2(C=O)CC[C@H]1C [Compound T83] | 4.43 ± 2.68 nM | 2.75 ± 1.67 fold | 2.37 ± 0.33 nM | 0.294 ± 0.048 fold | – | –
10 | C[C@@H]1[C@H]2[C@H]3C(=O)C=C4[C@@]5(C)C=C(C#N)C(=O)C(C)(C)[C@@H]5CC[C@@]4(C)[C@]3(C)CC[C@@]2(/C=N/O)CC[C@H]1C [Compound T84] | 7.91 ± 2.32 nM | 4.07 ± 1.76 fold | 9.29 ± 1.52 nM | 1.14 ± 0.22 fold | – | –
11 | CNC(=O)[C@]12CC[C@@H](C)[C@H](C)[C@H]1[C@H]1C(=O)C=C3[C@@]4(C)C=C(C#N)C(=O)C(C)(C)[C@@H]4CC[C@@]3(C)[C@]1(C)CC2 [Compound T85] | 26.8 ± 4.7 nM | 9.84 ± 1.92 fold | 19 ± 3.5 nM | 1.63 ± 0.17 fold | – | –
12 | C[C@@H]1[C@H]2[C@H]3C(=O)C=C4[C@@]5(C)C=C(C#N)C(=O)C(C)(C)[C@@H]5CC[C@@]4(C)[C@]3(C)CC[C@@]2(C(=O)NC2CC2)CC[C@H]1C [Compound T86] | 28.5 ± 6.5 nM | 7.09 ± 1.54 fold | 24.8 ± 6.4 nM | 2.12 ± 0.16 fold | – | –
13 | C[C@@H]1[C@H]2[C@H]3C(=O)C=C4[C@@]5(C)C=C(C#N)C(=O)C(C)(C)[C@@H]5CC[C@@]4(C)[C@]3(C)CC[C@@]2(C(=O)NCC(F)F)CC[C@H]1C [Compound T87] | 26.1 ± 7.6 nM | 6.55 ± 2.23 fold | 23.6 ± 0.9 nM | 2.0 ± 0.1 fold | – | –
14 | COC(=O)C[C@]12CC[C@@H](C)[C@H](C)[C@H]1[C@H]1C(=O)C=C3[C@@]4(C)C=C(C#N)C(=O)C(C)(C)[C@@H]4CC[C@@]3(C)[C@]1(C)CC2 [Compound T88] | 12.9 ± 5.1 nM | 6.48 ± 0.96 fold | 10.7 ± 3.2 nM | 1.03 ± 0.33 fold | – | –
15 | C[C@@H]1[C@H]2[C@H]3C(=O)C=C4[C@@]5(C)C=C(C#N)C(=O)C(C)(C)[C@@H]5CC[C@@]4(C)[C@]3(C)CC[C@@]2(CC(=O)O)CC[C@H]1C [Compound T89] | 14.6 ± 2.2 nM | 8.03 ± 3.23 fold | 3.62 ± 1.73 nM | 0.345 ± 0.161 fold | – | –
16 | C[C@@H]1[C@H]2[C@H]3C(=O)C=C4[C@@]5(C)C=C(C#N)C(=O)C(C)(C)[C@@H]5CC[C@@]4(C)[C@]3(C)CC[C@@]2(CC(N)=O)CC[C@H]1C [Compound T90] | 8.74 ± 2.77 nM | 4.60 ± 2.34 fold | 3.71 ± 0.99 nM | 0.455 ± 0.131 fold | – | –
17 | CNC(=O)C[C@]12CC[C@@H](C)[C@H](C)[C@H]1[C@H]1C(=O)C=C3[C@@]4(C)C=C(C#N)C(=O)C(C)(C)[C@@H]4CC[C@@]3(C)[C@]1(C)CC2 [Compound T91] | 4.69 ± 1.87 nM | 2.44 ± 1.39 fold | 2.96 ± 0.77 nM | 0.359 ± 0.078 fold | – | –
18 | C[C@@H]1[C@H]2[C@H]3C(=O)C=C4[C@@]5(C)C=C(C#N)C(=O)C(C)(C)[C@@H]5CC[C@@]4(C)[C@]3(C)CC[C@@]2(CC(=O)NC2CC2)CC[C@H]1C [Compound T92] | 5.97 ± 2.71 nM | 3.68 ± 1.63 fold | 4.33 ± 0.75 nM | 0.555 ± 0.181 fold | – | –
19 | C[C@@H]1[C@H]2[C@H]3C(=O)C=C4[C@@]5(C)C=C(C#N)C(=O)C(C)(C)[C@@H]5CC[C@@]4(C)[C@]3(C)CC[C@@]2(CC(=O)N2CCC2)CC[C@H]1C [Compound T93] | 5.69 ± 1.93 nM | 3.06 ± 1.70 fold | 4.24 ± 0.66 nM | 0.525 ± 0.129 fold | – | –
20 | Cc1noc(C[C@]23CC[C@@H](C)[C@H](C)[C@H]2[C@H]2C(=O)C=C4[C@@]5(C)C=C(C#N)C(=O)C(C)(C)[C@@H]5CC[C@@]4(C)[C@]2(C)CC3)n1 [Compound T96] | 13.3 ± 3.7 nM | 7.08 ± 3.49 fold | 10.6 ± 0.7 nM | 1.32 ± 0.21 fold | – | –
21 | C[C@@H]1[C@H]2[C@H]3C(=O)C=C4[C@@]5(C)C6O[C@@]6(C#N)C(=O)C(C)(C)[C@@H]5CC[C@@]4(C)[C@]3(C)CC[C@@]2(CNC(=O)C2CC2)CC[C@H]1C (some centres unmarked) [Compound T98] | 15.2 ± 4.3 nM | 4.45 ± 1.25 fold | 6.85 ± 0.51 nM | 0.574 ± 0.052 fold | – | –
22 | Cc1noc([C@]23CC[C@@H](C)[C@H](C)[C@H]2[C@H]2C(=O)C=C4[C@@]5(C)C6O[C@@]6(C#N)C(=O)C(C)(C)[C@@H]5CC[C@@]4(C)[C@]2(C)CC3)n1 (some centres unmarked) [Compound T99] | 14.8 ± 4.7 nM | 5.92 ± 0.69 fold | 10.4 ± 0.8 nM | 0.864 ± 0.046 fold | – | –
23 | C[C@@H]1[C@H]2[C@H]3C(=O)C=C4[C@@]5(C)C6O[C@@]6(C#N)C(=O)C(C)(C)[C@@H]5CC[C@@]4(C)[C@]3(C)CC[C@@]2(NC(=O)C(C)(F)F)CC[C@H]1C (some centres unmarked) [Compound T100] | 60.6 ± 0.9 nM | 28.1 ± 9.62 fold | 29.4 ± 3.69 nM | 2.87 ± 0.59 fold | – | –
24 | COC(=O)[C@]12CC[C@@H](C)[C@H](C)[C@H]1[C@H]1C(=O)C[C@@H]3[C@@]4(C)C=C(C#N)C(=O)C(C)(C)[C@@H]4CC[C@@]3(C)[C@]1(C)CC2 [Compound T101] | 102 ± 15 nM | 67.7 ± 3.62 fold | 142 ± 29 nM | 15.8 ± 2.1 fold | – | –
